In experiment [1] the test system is T1, benzoquinone reductase (BQR), Pospl1|124517.
T1 construct: synthetic CDS in pEU-E01-MCS, wheat germ cell-free expression, crude translation mixture (sample S2), predicted 25 kDa, intracellular, no tag stated
Description: NADPH consumption during […],6-DMBQ reduction. The class given is cell-based, Rhodonia placenta. As to conditions: 30–570 µM 2,6-DMBQ; NADPH co-substrate; FMN cofactor; crude cell-free mixture.

The subject of experiment [2] is T2, heme-thiolate peroxidase (HTP), Pospl1|61079.
T2 construct: synthetic CDS in pEU-E01-MCS, wheat germ cell-free expression with nanodiscs and hemin (S1b), crude mixture, predicted 32 kDa
Description: ABTS oxidation with H2O2. In kind it is cell-based, Rhodonia placenta. As to conditions: 50–900 µM ABTS; H2O2 as oxidant; crude cell-free mixture with hemin and nanodiscs. The protocol: ABTS oxidation with H2O2 on heme-thiolate peroxidase (HTP), Pospl1|61079 | Km and Vmax values for enzymes HTP, ABF, BQR, and FRD were determined

On to `COC1=CC(=O)C=C(OC)C1=O` [2,6-DMBQ, 2,6-dimethoxy-1,4-benzoquinone], for which the Michaelis constant (Km) in experiment [1] was 214 µM. As to `CCn1c(=NN=c2sc3cc(S(=O)(=O)O)ccc3n2CC)sc2cc(S(=O)(=O)O)ccc21` [ABTS], the Km in experiment [2] came to 142 µM.

For orientation: Km means the concentration of substrate that gives half-maximal velocity.

These data come from article PMC11205865, “Unlocking the distinctive enzymatic functions of the early plant biomass deconstructive genes in a brown rot fungus by cell-free protein expression” (Applied and Environmental Microbiology, 2024).
